According to US20230078120A1 (priority 2020, published 2023):
Several values for one entry are separate records, joined by “and”; a condition that tells them apart may be missing. Equal entries are not always repeated. Where two headings read alike, the source gives them in different places.

Experiments:
virus-infected cells = conditions: cited from earlier work
[1] = test system: influenza A virus (IAV) infected cells; conditions: caspase-mediate apoptosis pathway; cited from earlier work
HBV [2] = assay: HBV replication in HepG2.2.15 liver cancer cell line; format: cell-based
Excerpt: (§1) Similar to the above mentioned IAP inhibitors, Compound 2 of the present invention is a potent IAP inhibitor and can promote apoptosis, and thus could be a potential antiviral compound for coronavirus infection treatment. FIGS. 1A-1C show the effect of Compound 2 on apoptotic induction, IAPs expression, and HBV replication and gene expression in HepG2.2.15 liver cancer cell line.

HBV [3] = conditions: mouse model of chronic HBV infection; cited from earlier work
SARS-CoV-2 = assay: microbe, parasite or virus in culture; format: cell-based; conditions: for IC50: Severe acute respiratory syndrome coronavirus 2, Vero; for Max Inhibition (%): Vero cells, MOI 0.0125, 24 hpi, at the Max Conc. of each compound (5, 50 or 150 uM)
in vitro = conditions: African green monkey
ABL1-nonphosphorylated = ABL1-nonphosphorylated (Homo sapiens, UniProt P00519); assay: Compound 1 kinase inhibition activity (% Ctrl), ABL1-nonphosphorylated; format: biochemical
ABL1-phosphorylated = ABL1-phosphorylated (Homo sapiens, UniProt P00519); assay: Compound 1 kinase inhibition activity (% Ctrl), ABL1-phosphorylated; format: biochemical
ABL2 = ABL2 (Homo sapiens, UniProt P42684); assay: Compound 1 kinase inhibition activity (% Ctrl), ABL2; format: biochemical
[4] = test system: cytokines associated with influenza virus induced cytokine storm; assay: Inhibition of cytokines associated with influenza virus induced cytokine storm, U937 cells, Luminex assay; format: cell-based; conditions: U937 cells infected with influenza virus, MOI 0.1, 24 hours treatment
Experimental: Following the method described in Front Immunol. 2019 Jun. 21; 1393 and Am. J. Physiol., Lung Cell Mol. Physiol. 315: L52-L58, 2018, U937 cells were infected with influenza virus at a MOI of 0.1 and treated with indicated concentrations of Compound 1 and Compound 2. The supernatant of cells was harvested after 24 hours treatment and the production of indicated cytokines were determined using Luminex assay. The method and results are shown below in FIG. 7 and FIGS. 8A-8C. Survival of influenza virus (IFV) infected mice are shown Table 4 and in FIGS. 9A-9B.

influenza virus = format: in vivo, mice
RIPK1 = molecular target: T1, RIPK1 (Homo sapiens, UniProt Q13546); assay: RIPK1 kinase assay (Promega RIPK1 Kinase Enzyme System kit); format: biochemical; conditions: cell free assay
T1 sequence (Q13546 1-327 limits assumed): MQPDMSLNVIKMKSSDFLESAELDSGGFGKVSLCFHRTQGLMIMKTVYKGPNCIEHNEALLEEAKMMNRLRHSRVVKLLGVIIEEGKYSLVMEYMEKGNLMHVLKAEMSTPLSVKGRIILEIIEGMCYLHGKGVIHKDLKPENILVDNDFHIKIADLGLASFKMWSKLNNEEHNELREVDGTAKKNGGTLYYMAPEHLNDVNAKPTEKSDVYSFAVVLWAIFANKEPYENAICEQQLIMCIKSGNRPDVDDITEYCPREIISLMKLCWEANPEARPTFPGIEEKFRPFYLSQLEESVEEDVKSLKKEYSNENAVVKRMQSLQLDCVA

[5] = test system: BCR-ABL1 expressing Ba/F3; conditions: read-out: IC50 Cellular Activity (BCR-ABL1 expressing Ba/F3)
BCR-ABL1 kinase = BCR-ABL1 kinase (Homo sapiens, UniProt P00519); assay: biochemical
IAPs = IAPs expression in HepG2.2.15 liver cancer cell line; format: cell-based
Excerpt: as §1

[6] = test system: HepG2.2.15 liver cancer cell line; assay: Apoptotic induction in HepG2.2.15 liver cancer cell line; format: cell-based; conditions: combination with TNF-α
Excerpt: as §1

HBV [7] = assay: Virus clearance in pAAV-HBV 1.3 model; format: in vivo; conditions: injection, C57BL/6J mice
HBV [8] = assay: HBV models in mice: hepatocyte apoptosis and liver immune readouts; format: in vivo
Vero E6 cells = conditions: cited from earlier work
SARS-CoV [9] = conditions: Vero E6 cells; cited from earlier work
MERS-CoV [10] = conditions: Vero E6 cells; cited from earlier work
SARS-CoV [11] = conditions: Vero E6 and Calu-3 cells; cited from earlier work
MERS-CoV [12] = conditions: Vero E6 and MRC5 cells; cited from earlier work
IL-8, IP-10, MCP-1 = conditions: cytokines associated with influenza-induced cytokine storm; cited from earlier work

ABL2, sequence (P42684 whole entry, species assumed): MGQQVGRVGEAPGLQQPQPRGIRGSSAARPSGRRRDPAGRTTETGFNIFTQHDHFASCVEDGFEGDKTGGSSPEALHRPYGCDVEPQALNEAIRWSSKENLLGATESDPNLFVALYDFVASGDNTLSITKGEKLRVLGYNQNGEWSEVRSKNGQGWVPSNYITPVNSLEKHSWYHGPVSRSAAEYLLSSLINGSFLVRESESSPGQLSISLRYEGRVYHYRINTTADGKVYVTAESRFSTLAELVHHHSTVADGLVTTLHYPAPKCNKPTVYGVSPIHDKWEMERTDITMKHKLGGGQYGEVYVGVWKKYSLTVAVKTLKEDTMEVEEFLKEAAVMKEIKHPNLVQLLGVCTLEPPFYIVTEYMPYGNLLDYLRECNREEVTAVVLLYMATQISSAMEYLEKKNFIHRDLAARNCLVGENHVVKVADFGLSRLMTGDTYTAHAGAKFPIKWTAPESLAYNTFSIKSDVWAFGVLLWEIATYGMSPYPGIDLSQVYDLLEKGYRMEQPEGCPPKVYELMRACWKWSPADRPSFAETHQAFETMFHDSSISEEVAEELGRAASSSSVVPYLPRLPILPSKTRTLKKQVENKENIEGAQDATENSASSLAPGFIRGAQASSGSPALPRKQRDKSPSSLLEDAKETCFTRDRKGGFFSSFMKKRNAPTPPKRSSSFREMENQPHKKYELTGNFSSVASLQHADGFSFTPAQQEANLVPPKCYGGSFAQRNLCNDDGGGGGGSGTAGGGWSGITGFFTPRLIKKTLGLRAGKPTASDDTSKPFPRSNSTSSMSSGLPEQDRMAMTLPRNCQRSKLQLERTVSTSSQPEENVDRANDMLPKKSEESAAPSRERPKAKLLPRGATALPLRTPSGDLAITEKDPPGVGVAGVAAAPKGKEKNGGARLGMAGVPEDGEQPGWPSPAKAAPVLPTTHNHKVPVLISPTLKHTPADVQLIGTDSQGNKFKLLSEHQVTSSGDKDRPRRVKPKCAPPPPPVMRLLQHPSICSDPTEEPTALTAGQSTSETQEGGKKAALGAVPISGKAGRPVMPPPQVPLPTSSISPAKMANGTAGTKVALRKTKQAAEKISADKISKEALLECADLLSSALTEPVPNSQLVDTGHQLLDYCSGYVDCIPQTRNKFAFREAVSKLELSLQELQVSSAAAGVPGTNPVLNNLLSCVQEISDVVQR
ABL1-nonphosphorylated, sequence (P00519 whole entry): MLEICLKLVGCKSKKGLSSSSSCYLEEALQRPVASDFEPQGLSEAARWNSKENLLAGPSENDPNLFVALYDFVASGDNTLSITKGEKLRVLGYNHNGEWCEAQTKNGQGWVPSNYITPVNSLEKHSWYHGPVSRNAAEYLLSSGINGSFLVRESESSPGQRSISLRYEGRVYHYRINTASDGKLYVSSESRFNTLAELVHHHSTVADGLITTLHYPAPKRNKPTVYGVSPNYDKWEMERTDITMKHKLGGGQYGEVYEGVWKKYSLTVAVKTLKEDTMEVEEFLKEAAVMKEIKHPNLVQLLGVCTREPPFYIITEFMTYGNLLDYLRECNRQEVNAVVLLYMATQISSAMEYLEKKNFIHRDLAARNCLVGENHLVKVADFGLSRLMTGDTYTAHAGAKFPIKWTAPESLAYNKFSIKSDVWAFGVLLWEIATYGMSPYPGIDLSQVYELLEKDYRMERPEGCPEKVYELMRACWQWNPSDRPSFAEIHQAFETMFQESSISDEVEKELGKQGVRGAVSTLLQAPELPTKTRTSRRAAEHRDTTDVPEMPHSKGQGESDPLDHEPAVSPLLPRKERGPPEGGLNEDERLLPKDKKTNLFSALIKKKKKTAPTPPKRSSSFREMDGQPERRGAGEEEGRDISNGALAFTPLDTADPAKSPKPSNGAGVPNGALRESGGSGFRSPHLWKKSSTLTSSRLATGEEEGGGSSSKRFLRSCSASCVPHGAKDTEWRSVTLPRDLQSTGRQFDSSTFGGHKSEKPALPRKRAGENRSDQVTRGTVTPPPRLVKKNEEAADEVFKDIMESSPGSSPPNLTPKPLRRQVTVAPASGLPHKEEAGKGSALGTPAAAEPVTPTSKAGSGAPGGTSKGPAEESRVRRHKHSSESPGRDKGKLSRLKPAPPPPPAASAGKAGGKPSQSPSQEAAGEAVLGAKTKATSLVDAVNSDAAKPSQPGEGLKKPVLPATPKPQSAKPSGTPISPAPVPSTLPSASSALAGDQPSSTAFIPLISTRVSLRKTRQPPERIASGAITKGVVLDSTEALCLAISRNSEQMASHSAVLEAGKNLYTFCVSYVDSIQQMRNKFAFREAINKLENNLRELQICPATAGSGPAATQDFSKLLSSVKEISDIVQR
ABL1-phosphorylated, sequence (P00519 whole entry): as above
BCR-ABL1 kinase, sequence (P00519 27-1130): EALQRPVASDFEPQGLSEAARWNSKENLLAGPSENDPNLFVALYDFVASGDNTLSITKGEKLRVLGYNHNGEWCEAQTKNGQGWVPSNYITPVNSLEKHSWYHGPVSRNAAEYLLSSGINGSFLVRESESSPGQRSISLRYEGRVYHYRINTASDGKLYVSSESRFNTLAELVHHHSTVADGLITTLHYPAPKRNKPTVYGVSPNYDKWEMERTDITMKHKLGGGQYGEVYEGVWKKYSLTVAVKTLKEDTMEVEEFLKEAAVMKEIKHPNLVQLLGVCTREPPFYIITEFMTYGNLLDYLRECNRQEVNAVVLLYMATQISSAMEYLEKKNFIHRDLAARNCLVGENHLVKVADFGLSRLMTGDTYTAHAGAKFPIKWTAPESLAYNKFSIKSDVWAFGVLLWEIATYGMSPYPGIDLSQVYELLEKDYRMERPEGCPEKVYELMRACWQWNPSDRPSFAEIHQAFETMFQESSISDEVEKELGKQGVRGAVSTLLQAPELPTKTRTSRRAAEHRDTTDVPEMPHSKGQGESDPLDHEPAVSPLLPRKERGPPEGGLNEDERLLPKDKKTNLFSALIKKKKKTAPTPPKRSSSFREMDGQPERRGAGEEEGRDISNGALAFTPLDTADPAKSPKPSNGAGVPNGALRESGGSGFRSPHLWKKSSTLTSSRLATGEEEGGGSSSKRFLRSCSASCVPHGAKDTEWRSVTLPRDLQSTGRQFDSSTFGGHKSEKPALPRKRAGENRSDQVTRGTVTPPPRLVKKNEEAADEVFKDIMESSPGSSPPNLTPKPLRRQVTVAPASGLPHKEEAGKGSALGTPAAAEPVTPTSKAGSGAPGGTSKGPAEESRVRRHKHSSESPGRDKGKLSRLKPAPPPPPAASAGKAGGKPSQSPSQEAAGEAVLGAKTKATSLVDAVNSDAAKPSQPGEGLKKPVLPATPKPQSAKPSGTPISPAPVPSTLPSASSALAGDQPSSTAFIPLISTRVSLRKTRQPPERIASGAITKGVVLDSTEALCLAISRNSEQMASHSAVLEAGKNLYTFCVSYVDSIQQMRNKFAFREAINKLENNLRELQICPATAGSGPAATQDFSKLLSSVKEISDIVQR

For `CC1(C)CCC(c2ccc(Cl)cc2)=C(CN2CCN(c3ccc(C(=O)NS(=O)(=O)c4ccc(N[C@H](CCN5CCOCC5)CSc5ccccc5)c(S(=O)(=O)C(F)(F)F)c4)cc3)CC2)C1` [ABT-236], the “apoptosis in virus-infected cells” value (virus-infected cells) is given as “accelerate apoptosis in virus-infected cells”.

For `CC1(C)CCC(c2ccc(Cl)cc2)=C(CN2CCN(c3ccc(C(=O)NS(=O)(=O)c4ccc(N[C@H](CCN5CCOCC5)CSc5ccccc5)c(S(=O)(=O)C(F)(F)F)c4)cc3)CC2)C1` [ABT-263], the “apoptosis in virus-infected cells” value [1] is given as “accelerates apoptosis in virus-infected cells”.

In the case of `CN(C)CC[C@H](CSc1ccccc1)Nc1ccc(S(=O)(=O)NC(=O)c2ccc(N3CCN(Cc4ccccc4-c4ccc(Cl)cc4)CC3)cc2)cc1[N+](=O)[O-]` [ABT-737], the “apoptosis in virus-infected cells” value (virus-infected cells) is listed as “accelerate apoptosis in virus-infected cells”.

For `CC[C@H](NC(=O)[C@H](C)NC)C(=O)N1C[C@@H](O)C[C@H]1Cc1c(-c2[nH]c3cc(F)ccc3c2C[C@@H]2C[C@H](O)CN2C(=O)[C@H](CC)NC(=O)[C@H](C)NC)[nH]c2cc(F)ccc12` [Birinapant], the virus replication (HBV [2]; high concentrations) is given as “impair enhancement of virus replication”, the virus replication (HBV [2]; low concentrations) is given as “increased virus replication” and the “elimination of hepatocytes containing HBV core antigen” value (HBV [3]) is given as “promote the elimination”. For the same compound, the “serum HBV DNA” value (HBV [3]) was “rapidly reduce” and the “serum HBV surface antigen” value (HBV [3]) was “rapidly reduce”.

In the case of `CCN(CC)CCCC(C)Nc1ccnc2cc(Cl)ccc12` (stereo not drawn) [Chloroquine], the IC50 (SARS-CoV-2) is reported as 13 µM, the “Max Inhibition (%)” value (SARS-CoV-2) is reported as 100.01% and the CC50 (in vitro) is reported as over 150 µM.

Work on `Cc1ccc(C(=O)Nc2ccc(CN3CCN(C)CC3)c(C(F)(F)F)c2)cc1C#Cc1cnc2[nH]ncc2c1` [Compound 1, 3-(2-(1H-pyrazolo[3,4-b]pyridin-5-yl)ethynyl)-4-methyl-N-(4-((4-methylpiperazin-1-yl)methyl)-3-(trifluoromethyl)phenyl)-benzamide] yielded a remaining activity at 0.01 µM (ABL1-nonphosphorylated; read-out: % Ctrl @ 10 nM) of 4.4%, a remaining activity at 0.1 µM (ABL1-nonphosphorylated; read-out: % Ctrl @ 100 nM) of 0.1% and a remaining activity at 1 µM (ABL1-nonphosphorylated; read-out: % Ctrl @ 1000 nM) of 0%. It also gave a remaining activity at 0.01 µM (ABL1-phosphorylated; read-out: % Ctrl @ 10 nM) of 3%, a remaining activity at 0.1 µM (ABL1-phosphorylated; read-out: % Ctrl @ 100 nM) of 0% and a remaining activity at 1 µM (ABL1-phosphorylated; read-out: % Ctrl @ 1000 nM) of 0%. The remaining activity at 0.01 µM (ABL2; 10 nM) was 2.6%, the remaining activity at 0.1 µM (ABL2; 100 nM) was 0% and the remaining activity at 1 µM (ABL2; 1000 nM) was 0%. For the same compound, the IC50 (SARS-CoV-2) was 1.32 µM, the “SARS-CoV-2 infection in Vero cell” value (SARS-CoV-2; result in words) was “inhibits SARS-CoV-2 infection in Vero cell” and the “production of cytokines associated with influenza induced cytokine storm” value [4] was “inhibits the production of cytokines associated with influenza induced cytokine storm”. For the same compound, the “survival of influenza virus infected mice” value (influenza virus; at the amounts of 5 mg/kg or 10 mg/kg) was “improves the survival of influenza virus infected mice”, the “Day 21 Survival number” value (influenza virus; mouse, in vivo) was 1 and 2 and the “Survival rate (%)” value (influenza virus; mouse, in vivo) was 11.11% and 22.22%. It also gave an IC50 (RIPK1) of 0.054 µM, an IC50 [5] of 0.006 ± 0.003 µM and a CC50 (in vitro) of over 5 µM. For the same compound, the IC50 (BCR-ABL1 kinase) was 0.0003 ± 4.5e-06 µM.

In the case of `CN[C@@H](C)C(=O)N[C@H]1CN(S(=O)(=O)c2cccc(S(=O)(=O)N3CC[C@H]4CC[C@@H](C(=O)NC(c5ccccc5)c5ccccc5)N4C(=O)[C@@H](NC(=O)[C@H](C)NC)C3)c2)CC[C@H]2CC[C@@H](C(=O)NC(c3ccccc3)c3ccccc3)N2C1=O` [Compound 2, (5S,5′S,8S,8′S,10aR,10a′R)-3,3′-(1,3-phenylenedisulfonyl)bis(N-benzhydryl-5-((S)-2-(methylamino)propanamido)-6-oxodecahydropyrrolo[1,2-a][1,5]diazocine-8-carboxamide)], the IC50 (SARS-CoV-2) is reported as over 50 µM, the “Max Inhibition (%)” value (SARS-CoV-2) is reported as 25.93% and the “production of cytokines associated with influenza induced cytokine storm” value [4] is reported as “inhibits the production of cytokines associated with influenza induced cytokine storm”. The “expression of IAPs” value (IAPs) was “inhibits the expression of IAPs in a dose-dependent manner”, the apoptosis pathway activation [6] was “significantly activate apoptosis pathway” and the virus replication (HBV [2]; high concentrations) was “impair enhancement of virus replication”. The virus replication (HBV [2]; low concentrations) was “increased virus replication”, the virus clearance (HBV [7]) was “promotes virus clearance” and the “apoptosis in the HBV-infected (HBsAg+) hepatocytes” value (HBV [8]; HBV models in mice) was “specifically induced apoptosis”. For the same compound, the “expression of IFN-γ and TNF-α” value (HBV [8]; liver tissue of HBV models) was “promotes the expression of IFN-γ and TNF-α”, the “number of CD4+ and CD8+ T cells” value (HBV [8]; liver tissue of HBV models) was “promotes” and the CC50 (in vitro) was over 50 µM.

In the case of `Cc1nc(Nc2ncc(C(=O)Nc3c(C)cccc3Cl)s2)cc(N2CCN(CCO)CC2)n1` [Dasatinib], the cytotoxicity (Vero E6 cells) is listed as “low cytotoxicity”.

For `Cc1ccc(NC(=O)c2ccc(CN3CCN(C)CC3)cc2)cc1Nc1nccc(-c2cccnc2)n1` [Imatinib], the “inhibition of SARS-CoV” value (SARS-CoV [9]) is given as “inhibit”, the “inhibition of MERS-CoV” value (MERS-CoV [10]) is given as “inhibit” and the cytotoxicity (Vero E6 cells) is given as “low cytotoxicity”. The “virus production of SARS-CoV” value (SARS-CoV [11]) was “showed inhibition” and the “virus production of MERS-CoV” value (MERS-CoV [12]) was “showed inhibition”.

With `Cc1cccc(C)c1OCC(=O)N[C@@H](Cc1ccccc1)[C@@H](O)C[C@H](Cc1ccccc1)NC(=O)[C@H](C(C)C)N1CCCNC1=O` [Lopinavir] the IC50 (SARS-CoV-2) was 17.3 µM, the “Max Inhibition (%)” value (SARS-CoV-2) was 99.93% and the CC50 (in vitro) was over 50 µM.

In the case of `Cc1cn(-c2cc(NC(=O)c3ccc(C)c(Nc4nccc(-c5cccnc5)n4)c3)cc(C(F)(F)F)c2)cn1` [Nilotinib, reference compound], the IC50 [5] is given as 0.01 ± 0.003 µM and the “production of IL-8, IP-10 and MCP-1” value (IL-8, IP-10, MCP-1) is given as “inhibit the production”.

For `CCOC(=O)C1=C[C@@H](OC(CC)CC)[C@H](NC(C)=O)[C@@H](N)C1` [Oseltamivir], the “Survival rate (%)” value (influenza virus; 10 mpk, QD, 2 hr prior to infection, day 21) was 100% and the “Day 21 Survival number” value (influenza virus; 10 mpk, QD, 2 hr prior to infection, of 9 animals) was 9.

For `Cc1ccc(C(=O)Nc2ccc(CN3CCN(C)CC3)c(C(F)(F)F)c2)cc1C#Cc1cnc2cccnn12` [Ponatinib], the “Day 21 Survival number” value (influenza virus; mouse, in vivo) was 2 and 1 and the “Survival rate (%)” value (influenza virus; mouse, in vivo) was 22.22% and 11.11%.

In the case of `CCC(CC)COC(=O)[C@H](C)N[P@](=O)(OC[C@H]1O[C@@](C#N)(c2ccc3c(N)ncnn23)[C@H](O)[C@@H]1O)Oc1ccccc1` [Remdesivir], the IC50 (SARS-CoV-2) is reported as 12.4 µM, the “Max Inhibition (%)” value (SARS-CoV-2) is reported as 95.01% and the CC50 (in vitro) is reported as over 50 µM.
